Test results from US12678412B2, “Substituted tolans for the modulation of microbial colonization” (BioMendics, LLC, priority 2017, dated 2026).

Key:
S. typhimurium TA100 = assay: Dose range finding colony forming assay, strain TA100 with metabolic activation; type: cell-based; details: positive control, 2 μg/plate
Method: (§1) A series of dose range finding assays were performed with five bacterial strains, S. typhimurium TA97a, TA98, TA100, TA1535, and E. coli WP2 uvrA pKM101, with and without metabolic activation at three plates per dose. The following doses, along with positive and negative controls, were tested: 5000, 2500, 1250, 500, 250, 125, 50, 20, 10, 5, 2, 1, and 0.2 μg/plate. The plates were evaluated for toxicity (a decrease in plate counts with increasing dose and/or a visible thinning of the background lawn) and for precipitation of the test article. Metabolic activation was included in some samples by adding phenobarbital/benzoflavone-induced rat liver S9 fractions with cofactors (S9 mix). Prior to use, freshly thawed aliquots of rat liver S9 were mixed with a sterile cofactor mix. The S9 mix contains a 10% liver S9 concentration and was refrigerated or stored on ice until used. When testing with metabolic activation, the S9 mix was used in the assay tube in place of phosphate buffer.
(§2) Dosing formulations were prepared to deliver all doses in a constant volume of 0.1 mL. The highest dose was prepared from test article weighed to the nearest 0.1 mg and the remaining formulations were prepared as serial dilutions from the high dose stock formulation. Using a permanent marking pen or computer printed labels, assay plates were labeled with the project and study numbers and the date. Assay plates and tubes were labeled with a unique identifier, which was used to match the assay tubes with the properly identified minimal glucose agar plate.
(§3) The pre-incubation method was used to perform the assay. The assay mix consisted of 0.1 mL of the test article formulation or control article, 0.5 mL S9 mix or phosphate buffer, and 0.1 mL of bacterial culture. Assay tubes were incubated at 37±1° C. with gentle agitation for 20±1 minutes, then 2.0-2.5 mL top agar was added to the assay mix and the top agar/assay mix poured onto appropriately labeled minimal glucose agar plates. Once the top agar hardened, the plates were inverted and incubated at 37±1° C. for 48±2 hours. Plates were counted with the Sorcerer (v. 2.2)/Ames Study Manager (v. 1.2.4) system from Perceptive Instruments (Suffolk, UK). With this system, plate counts are automatically transferred from the plate imager (Sorcerer) to a Study Manager spreadsheet, and the data are stored in a secure manner on an Oracle database. Some plates were hand counted, e.g., if sample precipitate interferes with automatic counting or toxicity results in the formation of microcolonies, in which case, counts for these plates were entered into the spreadsheet manually. Plates were scored also with the extent of colonization by a post fix code.

S. typhimurium TA1535 = assay: Dose range finding colony forming assay, strain TA1535 without metabolic activation; type: cell-based; details: positive control, 1 μg/plate
Method: as §1, §2, §3

S. typhimurium TA97a = assay: Dose range finding colony forming assay, strain TA97a with metabolic activation; type: cell-based; details: positive control, 2.5 μg/plate
Method: as §1, §2, §3

S. typhimurium TA98 = assay: Dose range finding colony forming assay, strain TA98 with metabolic activation; type: cell-based; details: positive control, 2 μg/plate
Method: as §1, §2, §3

[1] = tested on: Methicillin Resistant Staphylococcus aureus (MRSA USA 300); assay: Colony forming assay, spread plate, MRSA USA 300; type: cell-based; details: Tobramycin 600 μg/mL; compared to the untreated control; 24 h; FIGS. 6A-6B
Method: A fresh culture of pathogenic isolate was used in these examples. The bacterial strains used were Methicillin Resistant Staphylococcus aureus (MRSA USA 300), Pseudomonas aeruginosa ATCC 27312, and Candida albicans ATCC 64550.
FIG. 5 illustrates the spread plate method used in these examples. In sum, agar plates were made, bacteria were diluted to 10^6 or 10^8 CFU/mL, bacteria and drug were mixed together and then plated. Glass spreading beads were used because they give a better bacterial spread. Plates were incubated for 24 hrs then the colonies that formed were counted.
Proliferating cultures of Methicillin Resistant Staphylococcus aureus (MRSA, USA 300) were used in a colony forming assay. Freeze-dried bacteria culture of MRSA was recovered by swabbing a 3-cm diameter growth area and resuspending it to obtain a final inoculum suspension of approximately 10^8 CFU/mL. The concentration was confirmed using historical optical density measurements. The total compound BM3103 was suspended in a 70% v/v alcohol gel formulation (Formulation A) before the introduction of bacteria, with the vehicle consisting of solely the 70% v/v alcohol gel. MRSA at 10^8 CFU/mL was challenged with equal parts of a high, medium, and low dose of BM3103, vehicle formulation, positive control (Tobramycin, 600 μg/mL), or untreated control (phosphate buffered saline). The inoculum was plated on Tryptic Soy Broth plates at 37° C. for 24 h. Plates were photographed and counted. The treatment for each experiment was done in triplicate, and the experiment was repeated three times, for a total of 9 plates per group.
Colony counts for each treatment were tabulated and the Log of the colony forming units/mL (Log CFU/mL) was determined. The mean and standard deviation of the Log CFU/mL were calculated for each treatment. A one-way analysis of variance was performed at a 95% confidence interval.

[2] = tested on: Methicillin Resistant Staphylococcus aureus (MRSA, USA 400); assay: Colony forming assay, 24 h plate assay, MRSA USA 400; type: cell-based; details: Tobramycin 600 μg/mL, compared to the vehicle control, FIG. 9
Method: Proliferating cultures of Methicillin Resistant Staphylococcus aureus (MRSA, USA 400) were used in a colony forming assay. Frozen stock cultures of MRSA USA 400 were thawed and grown overnight in tryptic soy broth (TSB) with shaking at 37° C. The overnight culture (0.5-1.0 mL) was added to 100 mL TSB and grown at 37° C. with shaking and monitored for an optical density of 0.55-0.60 in order to obtain a final inoculum suspension of approximately 10^8 CFU/mL.
BM3103 was suspended into a 70% v/v alcohol gel formulation to acquire the desired % w/v tested within the example. Each concentration was vortexed thoroughly until dissolved. Initial tested concentrations of BM3103 were 1, 0.5, and 0.1% w/v. These concentrations and the alcohol gel vehicle were mixed with equal parts of the 10^8 CFU/mL inoculum to obtain a final concentration of 0.5, 0.25, and 0.05% (22 mM, 11 mM, and 2 mM) BM3103. Tobramycin (600 μg/mL) served as the positive control. Vehicle and BM3103 formulations contained matching final concentration of 35% v/v alcohol.
BM3103 was dissolved into Transcutol (diethylene glycol monoethyl ether) at 2.5% w/v and vortexed until dissolved. This concentration was then serial diluted to achieve the remaining concentrations tested. Before plating, 100 μL of the final inoculum (10^8 CFU/mL) was mixed with 20 μL TSB broth and 80 μL of BM3103 doses or vehicle. Tobramycin, 600 μg/mL, served as the positive control. The final plating concentrations for BM3103 were 1, 0.5, 0.25, and 0.1% w/v (44 mM, 22 mM, 11 mM, 4 mM) BM3103. Vehicle and BM3103 formulations contained matching final concentration of 40% v/v Transcutol.
The above listed formulations combined with the MRSA inoculum were plated onto TSB agar plates. The plates were grown at 37° C. for 24 h, imaged, and the bacteria colonies were counted. The experiment was done in triplicate at each concentration level described above. Colony counts for each treatment were tabulated and the Log of the colony forming units/mL (Log CFU/mL) were determined. The mean and the standard error of the mean were calculated for each treatment.

wild type E. Coli = details: previous data; cited from earlier work
[3] = tested on: NEB 5 α competent E. coli; assay: Bacterial colony forming assay (Examples 6-9); type: cell-based; details: alcohol gel
Method: NEB 5 α competent E. coli were retrieved from frozen cultures and grown overnight in a bacterial incubator at 37° C. Proliferating cultures of bacteria were used in a colony forming assay by adding 25 μL of bacteria from the overnight culture to 10 mL of fresh Lysogeny Broth (LB; Bertani, G. (2004). “Lysogeny at mid-twentieth century: P1, P2, and other experimental systems”. Journal of Bacteriology. 186 (3): 595-600. PMC 321500. PMID 14729683. doi:10.1128/JR.186.3.595-600.2004). 1 mL of this diluted bacteria was added to various dilutions of formulations of substituted tolan compounds as described in Table C, below and in charts of the corresponding Figures.
One mL of each formulation was mixed with 1 mL of diluted bacteria in LB and put onto agar plates. Alcohol gels were allowed to dry and incubated overnight for 16-18 hrs. Control plates consisted of 2 mL alcohol gel plus 1 mL diluted bacteria, resulting in a colony count of less than 10 colonies, a 1 mL alcohol gel plus 1 mL diluted bacteria, resulting in a partial lawn of bacteria (colonies were too close to count appropriately), 1 mL diluted bacteria alone, resulting in a full lawn of bacteria (no distinguishable colonies), and an appropriate dilution of PEG-400 and HPβCD into 1 mL of alcohol gel plus 1 mL diluted bacteria, resulting in a lawn of bacteria. Plate area was then selected and the Image J colony counter was used to obtain colony counts (Size (pixels squared) 5-1000 and circularity 0.5-1).

## c1ccc2c(c1)cc1ccc3cccc4ccc2c1c34 [BAP_Moltox, Benzo(a) pyrene_Moltox, reference compound]
S. typhimurium TA100
  Colony forming units/plate: 806.0 colony forming units/plate

## [N-]=[N+]=[N-] [NaN3, Sodium Azide, reference compound]
S. typhimurium TA1535
  Colony forming units/plate: 714.7 colony forming units/plate

## Nc1ccc2cc3ccccc3cc2c1 [Compound 2A, 2-Aminoanthracene, reference compound]
S. typhimurium TA97a
  Colony forming units/plate: 3241.3 colony forming units/plate
S. typhimurium TA98
  Colony forming units/plate: 2315.0 colony forming units/plate

## NC[C@H]1O[C@H](O[C@H]2[C@H](O)[C@@H](O[C@H]3O[C@H](CO)[C@@H](O)[C@H](N)[C@H]3O)[C@H](N)C[C@@H]2N)[C@H](N)C[C@@H]1O [Tobramycin, reference compound]
[1]
  Reduction of MRSA USA 300 counts: 6 fold
[2]
  Reduction of MRSA USA 400 counts: 4 fold

## Oc1ccc(C#Cc2cc(O)cc(O)c2)cc1 [3,5,4′-trihydroxytolan]
Wild type E. Coli
  Effectiveness against wild type E. Coli: ineffective

## Oc1ccc(C#Cc2ccc(C(F)(F)F)cc2)cc1 [BM3213, 4-hydroxy-4′-(trifluoro)methyltolan]
[3]; 2.23 mM, FIG. 3
  Inhibition of E. coli growth: very inhibitory to E. coli
[3]; concentrations 10 fold diluted from 2.23 mM, FIG. 3
  Inhibition of E. coli growth: less so

## COc1ccc(C#Cc2ccc(OC)c(OC)c2)cc1 [BM3303, 3,4,4′-trimethoxytolan]
[3]; 1.11 mM, FIG. 4
  Inhibition of E. coli growth: an inhibitor to E. coli
[3]; FIG. 4
  Dose dependence of inhibition of E. coli: dose dependent inhibitory effects
[3]; concentrations 10-fold diluted from 1.11 mM, FIG. 4
  Inhibition of E. coli growth: less so
